Data: US10508104B2, “6-hydroxy-5-(phenyl/heteroarylsulfonyl)pyrimidin-4(1H)-one as APJ agonists” (Bristol-Myers Squibb Company, priority 2016, dated 2019)

Biological target: human APJ receptor (Homo sapiens (Human), UniProt P35414)
Test: Intracellular cAMP accumulation assay (APJ hcAMP, HTRF)
Format: cell-based
Conditions: HEK293 cells stably expressing human APJ receptor; inhibition of forskolin-mediated cAMP production; read-out: Human APJ cAMP EC50 Potency range
In short: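 HEK293 cells stably expressing human APJ, 5,000 per well, incubated 30 min at rt with compound, […] and 2 μM forskolin. cAMP measured by HTRF against a cAMP standard curve as inhibition of forskolin-driven production. EC50 from variable-slope sigmoidal fit.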

human APJ receptor, sequence (P35414 whole entry): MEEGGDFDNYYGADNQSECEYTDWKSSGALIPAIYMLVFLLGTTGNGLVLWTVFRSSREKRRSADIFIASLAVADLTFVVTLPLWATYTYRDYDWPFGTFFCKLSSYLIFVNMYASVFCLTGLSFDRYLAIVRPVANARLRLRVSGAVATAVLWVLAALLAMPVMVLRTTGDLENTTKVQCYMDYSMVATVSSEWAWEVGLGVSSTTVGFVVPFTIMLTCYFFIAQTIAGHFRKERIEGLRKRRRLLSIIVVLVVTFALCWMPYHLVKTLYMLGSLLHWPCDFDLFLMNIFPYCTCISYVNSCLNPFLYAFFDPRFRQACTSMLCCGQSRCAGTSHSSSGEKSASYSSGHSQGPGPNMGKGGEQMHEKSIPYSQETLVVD

EC50 [nM]	SMILES
0.01 to 10	CCCCc1nc(=O)c(S(=O)(=O)c2ccc(-c3cncc(F)c3)cc2)c(O)n1[C@@H](C)c1ccccc1 [Example 128, (S)-2-Butyl-5-((4-(5-fluoropyridin-3-yl)phenyl)sulfonyl)-6-hydroxy-1-(1-phenylethyl)pyrimidin-4(1H)-one]

Same assay, conditions: human APJ, intracellular cAMP accumulation; read-out: Human APJ cAMP EC50 Potency range

EC50 [nM]	SMILES
10 to 100	CCCCc1nc(=O)c(S(=O)(=O)c2ccc(Br)cc2)c(O)n1[C@H](CC)c1ccccc1 [Example 126, 5-(4-bromobenzenesulfonyl)-2-butyl-6-hydroxy-1-[(1R)-1-phenylpropyl]-1,4-dihydropyrimidin-4-one]
10 to 100	CCCCc1nc(=O)c(S(=O)(=O)c2ccc(Br)cc2)c(O)n1[C@H](C)c1ccccc1 [Example 127, 5-(4-bromobenzenesulfonyl)-2-butyl-6-hydroxy-1-[(1R)-1-phenylethyl]-1,4-dihydropyrimidin-4-one]
100 to 300	CCCCc1nc(=O)c(S(=O)(=O)c2ccc(C)cc2)c(O)n1[C@@H](C)c1ccccc1 [Example 129, 2-butyl-6-hydroxy-5-(4-methylbenzenesulfonyl)-1-[(1S)-1-phenylethyl]-1,4-dihydropyrimidin-4-one]
10 to 100	CCCCc1nc(=O)c(S(=O)(=O)c2ccc(C)cc2)c(O)n1[C@H](C)c1ccccc1 [Example 130, 2-butyl-6-hydroxy-5-(4-methylbenzenesulfonyl)-1-[(1R)-1-phenylethyl]-1,4-dihydropyrimidin-4-one]
10 to 100	CCCCc1nc(=O)c(S(=O)(=O)c2ccc(-c3cncc(F)c3)cc2)c(O)n1[C@H](C)c1ccccc1 [Example 131, 2-butyl-5-[4-(5-fluoropyridin-3-yl)benzenesulfonyl]-6-hydroxy-1-[(1R)-1-phenylethyl]-1,4-dihydropyrimidin-4-one]
0.01 to 10	CCCCc1nc(=O)c(S(=O)(=O)c2ccc(-c3cncc(F)c3)cc2)c(O)n1[C@@H](COC)c1ccccc1 [Example 132, 2-butyl-5-[4-(5-fluoropyridin-3-yl)benzenesulfonyl]-6-hydroxy-1-[(1R)-2-methoxy-1-phenylethyl]-1,4-dihydropyrimidin-4-one]
0.01 to 10	CCCCc1nc(=O)c(S(=O)(=O)c2ccc(-c3ccc(F)nc3)cc2)c(O)n1[C@@H](COC)c1ccccc1 [Example 133, 2-butyl-5-[4-(6-fluoropyridin-3-yl)benzenesulfonyl]-6-hydroxy-1-[(1R)-2-methoxy-1-phenylethyl]-1,4-dihydropyrimidin-4-one]
0.01 to 10	CCCCc1nc(=O)c(S(=O)(=O)c2ccc(-c3ccncc3C)cc2)c(O)n1[C@@H](COC)c1ccccc1 [Example 134, 2-butyl-6-hydroxy-1-[(1R)-2-methoxy-1-phenylethyl]-5-[4-(3-methylpyridin-4-yl)benzenesulfonyl]-1,4-dihydropyrimidin-4-one]
0.01 to 10	CCCCc1nc(=O)c(S(=O)(=O)c2ccc(-c3ccc(F)nc3)cc2)c(O)n1[C@@H](C)c1ccccc1 [Example 135, 2-butyl-5-[4-(6-fluoropyridin-3-yl)benzenesulfonyl]-6-hydroxy-1-[(1S)-1-phenylethyl]-1,4-dihydropyrimidin-4-one]
0.01 to 10	CCCCc1nc(=O)c(S(=O)(=O)c2ccc(-c3ccc(F)nc3)cc2)c(O)n1[C@H](C)c1ccccc1 [Example 136, 2-butyl-5-[4-(6-fluoropyridin-3-yl)benzenesulfonyl]-6-hydroxy-1-[(1R)-1-phenylethyl]-1,4-dihydropyrimidin-4-one]
0.01 to 10	CCCCc1nc(=O)c(S(=O)(=O)c2ccc(C)cc2)c(O)n1[C@@H](COC)c1ccccc1 [Example 137, 2-butyl-6-hydroxy-1-[(1R)-2-methoxy-1-phenylethyl]-5-(4-methylbenzenesulfonyl)-1,4-dihydropyrimidin-4-one]
0.01 to 10	CCCCc1nc(=O)c(S(=O)(=O)c2ccc(-c3ccncc3C)cc2)c(O)n1[C@@H](C)c1ccccc1 [Example 138, 2-butyl-6-hydroxy-5-[4-(3-methylpyridin-4-yl)benzenesulfonyl]-1-[(1S)-1-phenylethyl]-1,4-dihydropyrimidin-4-one]
0.01 to 10	CCCCc1nc(=O)c(S(=O)(=O)c2ccc(-c3ccncc3C)cc2)c(O)n1[C@H](C)c1ccccc1 [Example 139, 2-butyl-6-hydroxy-5-[4-(3-methylpyridin-4-yl)benzenesulfonyl]-1-[(1R)-1-phenylethyl]-1,4-dihydropyrimidin-4-one]
0.01 to 10	CCCCc1nc(=O)c(S(=O)(=O)c2ccc(-c3cncc(F)c3)cc2)c(O)n1[C@@H](C)c1cccc(C#N)c1 [Example 140, 3-[(1S)-1-{2-butyl-5-[4-(5-fluoropyridin-3-yl)benzenesulfonyl]-6-hydroxy-4-oxo-1,4-dihydropyrimidin-1-yl}ethyl]benzonitrile]
0.01 to 10	CCCCc1nc(=O)c(S(=O)(=O)c2ccc(-c3ccc(F)nc3)cc2)c(O)n1[C@@H](C)c1cccc(C#N)c1 [Example 141, 3-[(1S)-1-{2-butyl-5-[4-(6-fluoropyridin-3-yl)benzenesulfonyl]-6-hydroxy-4-oxo-1,4-dihydropyrimidin-1-yl}ethyl]benzonitrile]
0.01 to 10	CCCCc1nc(=O)c(S(=O)(=O)c2ccc(-c3ccncc3C)cc2)c(O)n1[C@@H](C)c1cccc(C#N)c1 [Example 142, 3-[(1S)-1-{2-butyl-6-hydroxy-5-[4-(3-methylpyridin-4-yl)benzenesulfonyl]-4-oxo-1,4-dihydropyrimidin-1-yl}ethyl]benzonitrile]
0.01 to 10	CCCCc1nc(=O)c(S(=O)(=O)c2ccc(-c3ccncc3C)cc2)c(O)n1[C@H](CC)c1ccccc1 [Example 143, 2-butyl-6-hydroxy-5-[4-(3-methylpyridin-4-yl)benzenesulfonyl]-1-[(1R)-1-phenylpropyl]-1,4-dihydropyrimidin-4-one]
0.01 to 10	CCCCc1nc(=O)c(S(=O)(=O)c2ccc(-c3ccncc3C)cc2)c(O)n1[C@@H](CC)c1cccc(OC)c1 [Example 144, 2-butyl-6-hydroxy-1-[(1S)-1-(3-methoxyphenyl)propyl]-5-[4-(3-methylpyridin-4-yl)benzenesulfonyl]-1,4-dihydropyrimidin-4-one]
0.01 to 10	CCCCc1nc(=O)c(S(=O)(=O)c2ccc(-c3cncc(F)c3)cc2)c(O)n1[C@@H](CC)c1cccc(OC)c1 [Example 145, 2-butyl-5-[4-(5-fluoropyridin-3-yl)benzenesulfonyl]-6-hydroxy-1-[(1S)-1-(3-methoxyphenyl)propyl]-1,4-dihydropyrimidin-4-one]
0.01 to 10	CCCCc1nc(=O)c(S(=O)(=O)c2ccc(-c3ccc(F)nc3)cc2)c(O)n1[C@@H](CC)c1cccc(OC)c1 [Example 146, 2-butyl-5-[4-(6-fluoropyridin-3-yl)benzenesulfonyl]-6-hydroxy-1-[(1S)-1-(3-methoxyphenyl)propyl]-1,4-dihydropyrimidin-4-one]
0.01 to 10	CCCCc1nc(=O)c(S(=O)(=O)c2ccc(-c3ccc(OC)nc3C)cc2)c(O)n1[C@@H](COC)c1ccccc1 [Example 147, 2-butyl-6-hydroxy-1-[(1R)-2-methoxy-1-phenylethyl]-5-[4-(6-methoxy-2-methylpyridin-3-yl)benzenesulfonyl]-1,4-dihydropyrimidin-4-one]
0.01 to 10	CCCCc1nc(=O)c(S(=O)(=O)c2ccc(-c3ccnc(F)c3C)cc2)c(O)n1[C@@H](COC)c1ccccc1 [Example 148, 2-butyl-5-[4-(2-fluoro-3-methylpyridin-4-yl)benzenesulfonyl]-6-hydroxy-1-[(1R)-2-methoxy-1-phenylethyl]-1,4-dihydropyrimidin-4-one]
